# According to patent publication US4772602A, “N-substituted 3,4-dihydropyrimidine derivatives as agents for treating disorders of cardiovascular system” (Suntory Limited, priority 1985, dated 1988):
# Assays:
# vertebral artery [1] = assay: vascular resistance of the vertebral artery in anesthetized dogs (ED30); assay type: in vivo, dog; details: Canis lupus familiaris, intravenous injection
# Protocol: The pharmacological effect (ED30) of the compounds of the present invention with respect to the vascular resistance of the vertebral artery in anesthetized dogs was treated by the following procedure.
# Adult dogs of either sex (7-14 kg in body weight) were anesthetized with at first thiopental sodium (35 mg/kg, intraperitoneal), anesthetized with urethane (400 mg/kg, intravenous) and chloralose (60 mg/kg, intravenous) and kept under artificial respiration throughout the experiment. After thoracotomy at the left first intercostal space, the vertebral artery was exposed and blood flow was measured with intracorporeal flow probe connected to an electromagnetic flowmeter (MF-27, Nihon Kohden).
# At the same time, continuous measurement of the following parameters was made: systemic blood pressure (mean pressure) at the right femoral artery, the limb lead II ECG, the heart rate with a tachometer triggered by the R wave of ECG, and the vascular resistance determined by loading a electronic divider unit (EO-601 G, Nihon Kohden) with the mean values of blood pressure and vertebral artery blood flow. All of these parameters were recorded simultaneously on a polygraph (RM-600, Nihon Kohden).
# All the test compounds were injected through a cannula inserted into the femoral vein.
# The ED30 (μg/kg) values obtained by intravenous injection are listed in Table 4, wherein the Compound Numbers are keyed to the Example Numbers.
# [2] = test system: isolated guinea pig hearts (coronary artery); assay: coronary vascular dilative effect in isolated guinea pig hearts (Langendorff's method); parameters: species or system guinea pig (Heartley); details: 37° C., 0.1 ml administered into the coronary artery
# Protocol: The coronary vascular dilative effect of 3N-substituted 3,4-dihydropyrimidine derivatives was tested.
# Heartley guinea pigs (weight 400-500 g) were killed by a blow on the head and their hearts were immediately isolated. The hearts were perfused with Krebs-Henseleit solution bubbled with a mixture of 95% O2 +5% CO2 and maintained at 37° C. at a constant rate of 6 ml/minute according to the Langendorff's method [J. Pharmacol. Methods 2, 143 (1979)]. The perfusion pressure was measured by a pressure transducer continuously. Samples were prepared by emulsifying 1 mg of a test compound in 1 ml of a mixture of dimethylsulfoxide and physiological saline solution (1:9) and diluting with physiological saline solution to the predetermined concentration. 0.1 ml of the diluted solution was administered into the coronary artery via a rubber tube connected to an aorta cannula to obtain ED50 (μg/heart) data as shown in Table 3. The numbers of the compounds in the Table correspond respectively to those of the working examples described above.
# vertebral artery [3] = assay: time course of reduction of the resistance of the vertebral artery in anesthetized dogs (T1/2); assay type: in vivo, dog; details: ED30 doses injected
# Protocol: Selected compounds of the present invention were tested for their ability to reduce the resistance of the vertebral artery in anesthetized dogs.
# The animals were injected with the ED30 doses of test compounds and the time course of changes in the vasucular resistance were studied as shown schematically in FIG. 1. From the curve shown in FIG. 1, the values of T1/2 (min) (the time to reach 50% of the resistance drop). The results are shown in Table 5, in which the compound numbers correspond to the Example numbers.
structure (smiles),measurement,setting,value
CCOC(=O)C1=C(C)N=C(C)N(C(=O)OCCN(Cc2ccccc2)Cc2ccccc2)C1c1ccccc1[N+](=O)[O-] (stereo not drawn) [Compound 61],ED30,vertebral artery [1],1.4 µg/kg
COC(=O)C1=C(C)N=C(C)N(C(=O)OCCN(CCCc2ccccc2)Cc2ccccc2)C1c1ccccc1[N+](=O)[O-] (stereo not drawn) [Compound 57],ED30,vertebral artery [1],0.48 µg/kg
CC1=NC(C)=C(C(=O)OC(C)C)C(c2ccccc2[N+](=O)[O-])N1C(=O)OCCN(Cc1ccccc1)Cc1ccccn1 (stereo not drawn) [Compound 68],ED30,vertebral artery [1],4.4 µg/kg
CC1=NC(C)=C(C(=O)OCC2CC2)C(c2ccccc2[N+](=O)[O-])N1C(=O)OCCN1CCN(c2cccc(C(F)(F)F)c2)CC1 (stereo not drawn) [Compound 26],ED30,vertebral artery [1],4.1 µg/kg
CC1=NC(C)=C(C(=O)OCC2CC2)C(c2ccccc2[N+](=O)[O-])N1C(=O)OCCCN(C)Cc1ccccc1 (stereo not drawn) [Compound 16],ED30,vertebral artery [1],3.8 µg/kg
CC1=NC(C)=C(C(=O)OC(C)C)C(c2cccc([N+](=O)[O-])c2)N1C(=O)OCCN(Cc1ccccc1)c1ccccc1 (stereo not drawn) [Compound 70],ED30,vertebral artery [1],3 µg/kg
CC1=NC(C)=C(C(=O)OC(C)C)C(c2ccccc2[N+](=O)[O-])N1C(=O)OCCN(C)Cc1ccccc1 (stereo not drawn) [Compound 10],ED50 (coronary vascular dilative effect),[2],0.060 μg/heart
same,ED30,vertebral artery [1],0.54 µg/kg
"CC1=NC(C)=C(C(=O)OCC2CC2)C(c2ccccc2[N+](=O)[O-])N1C(=O)OCCN(C)Cc1ccccc1 (stereo not drawn) [Compound 1, 3-{2-(N-benzyl-N-methylamino)ethoxycarbonyl}-5-cyclopropylmethoxycarbonyl-2,6-dimethyl-4-(2-nitrophenyl)-3,4-dihydropyrimidine]",ED50 (coronary vascular dilative effect),[2],0.013 μg/heart
same,ED30,vertebral artery [1],0.58 µg/kg
CC1=NC(C)=C(C(=O)OCC2CC2)C(c2ccccc2[N+](=O)[O-])N1C(=O)OCCN(C/C=C/c1ccccc1)C/C=C/c1ccccc1 (stereo not drawn) [Compound 33],T1/2 (the time to reach 50% of the resistance drop),vertebral artery [3],30.5 min
CC1=NC(C)=C(C(=O)OC(C)C)C(c2ccccc2[N+](=O)[O-])N1C(=O)OCCc1ccccn1 (stereo not drawn) [Compound 27],ED50 (coronary vascular dilative effect),[2],0.029 μg/heart
CC1=NC(C)=C(C(=O)OCC2CC2)C(c2ccccc2[N+](=O)[O-])N1C(=O)OCCN(Cc1ccccc1)Cc1ccccc1 (stereo not drawn) [Compound 52],T1/2 (the time to reach 50% of the resistance drop),vertebral artery [3],8.0 min
same,ED30,vertebral artery [1],1.5 µg/kg
CC1=NC(C)=C(C(=O)OCC2CC2)C(c2ccccc2[N+](=O)[O-])N1C(=O)OCC1CCCN1Cc1ccccc1 (stereo not drawn) [Compound 19],ED30,vertebral artery [1],1.4 µg/kg
CC1=NC(C)=C(C(=O)OCC(C)C)C(c2ccccc2[N+](=O)[O-])N1C(=O)OCCN(Cc1ccccc1)c1ccccc1 (stereo not drawn) [Compound 60],ED30,vertebral artery [1],1.7 µg/kg
CC1=NC(C)=C(C(=O)OC(C)C)C(c2cccc([N+](=O)[O-])c2)N1C(=O)OCCN(CCCc1ccccc1)Cc1ccccc1 (stereo not drawn) [Compound 37],T1/2 (the time to reach 50% of the resistance drop),vertebral artery [3],10.3 min
CCOC(=O)C1=C(C)N=C(C)N(C(=O)OCCN(CCCc2ccccc2)Cc2ccccc2)C1c1cccc([N+](=O)[O-])c1 (stereo not drawn) [Compound 38],T1/2 (the time to reach 50% of the resistance drop),vertebral artery [3],8.0 min
same,ED30,vertebral artery [1],4.2 µg/kg
CC1=NC(C)=C(C(=O)OCC2CC2)C(c2cccc([N+](=O)[O-])c2)N1C(=O)OCCN(CCCc1ccccc1)Cc1ccccc1 (stereo not drawn) [Compound 36],T1/2 (the time to reach 50% of the resistance drop),vertebral artery [3],12.0 min
CCOC(=O)C1=C(C)N=C(C)N(C(=O)OCCN(C)Cc2ccccc2)C1c1ccccc1[N+](=O)[O-] (stereo not drawn) [Compound 3],ED50 (coronary vascular dilative effect),[2],0.0095 μg/heart
same,ED30,vertebral artery [1],0.75 µg/kg
CC1=NC(C)=C(C(=O)OC(C)C)C(c2ccccc2[N+](=O)[O-])N1C(=O)OCCN(Cc1ccccc1)Cc1cccs1 (stereo not drawn) [Compound 67],ED30,vertebral artery [1],1 µg/kg
CC1=NC(C)=C(C(=O)OC(C)C)C(c2ccccc2[N+](=O)[O-])N1C(=O)OCCN(Cc1ccccc1)Cc1ccc2ccccc2c1 (stereo not drawn) [Compound 45],T1/2 (the time to reach 50% of the resistance drop),vertebral artery [3],15.6 min
same,ED30,vertebral artery [1],1.8 µg/kg
COC(=O)C1=C(C)N=C(C)N(C(=O)OCCN(Cc2ccccc2)c2ccccc2)C1c1ccccc1[N+](=O)[O-] (stereo not drawn) [Compound 71],ED30,vertebral artery [1],5 µg/kg
CCOC(=O)C1=C(C)N=C(C)N(C(=O)OCCN(CCCc2ccccc2)Cc2ccccc2)C1c1ccccc1[N+](=O)[O-] (stereo not drawn) [Compound 40],ED30,vertebral artery [1],1.5 µg/kg
CC1=NC(C)=C(C(=O)OC(C)C)C(c2ccccc2[N+](=O)[O-])N1C(=O)OCCN(CCCc1ccccc1)c1ccccc1 (stereo not drawn) [Compound 53],T1/2 (the time to reach 50% of the resistance drop),vertebral artery [3],7.7 min
same,ED30,vertebral artery [1],2.5 µg/kg
CCCOC(=O)C1=C(C)N=C(C)N(C(=O)OCCN(Cc2ccccc2)Cc2ccccc2)C1c1ccccc1[N+](=O)[O-] (stereo not drawn) [Compound 46],ED30,vertebral artery [1],2 µg/kg
CC1=NC(C)=C(C(=O)OCC2CC2)C(c2cccc([N+](=O)[O-])c2)N1C(=O)OCCN(C)Cc1ccccc1 (stereo not drawn) [Compound 2],ED50 (coronary vascular dilative effect),[2],0.52 μg/heart
same,ED30,vertebral artery [1],0.84 µg/kg
CC1=NC(C)=C(C(=O)OCC2CC2)C(c2ccccc2[N+](=O)[O-])N1C(=O)OCCN(C)C(c1ccccc1)c1ccccc1 (stereo not drawn) [Compound 8],ED30,vertebral artery [1],4.1 µg/kg
CCCCN(CCOC(=O)N1C(C)=NC(C)=C(C(=O)OCC2CC2)C1c1ccccc1[N+](=O)[O-])Cc1ccccc1 (stereo not drawn) [Compound 14],ED30,vertebral artery [1],2.1 µg/kg
CC1=NC(C)=C(C(=O)OCC2CC2)C(c2ccccc2[N+](=O)[O-])N1C(=O)OCCN(C/C=C/c1ccccc1)Cc1cccs1 (stereo not drawn) [Compound 32],T1/2 (the time to reach 50% of the resistance drop),vertebral artery [3],7.0 min
same,ED30,vertebral artery [1],3.2 µg/kg
CC1=NC(C)=C(C(=O)OCC2CC2)C(c2ccccc2[N+](=O)[O-])N1C(=O)OCCN1CCN(Cc2ccccc2)CC1 (stereo not drawn) [Compound 24],ED50 (coronary vascular dilative effect),[2],0.01 μg/heart
CC1=NC(C)=C(C(=O)OC(C)C)C(c2ccccc2[N+](=O)[O-])N1C(=O)OCCN(CCc1ccccc1)c1ccccc1 (stereo not drawn) [Compound 54],ED30,vertebral artery [1],1.4 µg/kg
CC1=NC(C)=C(C(=O)OCC2CC2)C(c2ccccc2[N+](=O)[O-])N1C(=O)OCCN(C)Cc1ccccn1 (stereo not drawn) [Compound 35],ED30,vertebral artery [1],4.2 µg/kg
CC1=NC(C)=C(C(=O)OCC2CC2)C(c2ccccc2[N+](=O)[O-])N1C(=O)OCCN(C)Cc1ccc2ccccc2c1 (stereo not drawn) [Compound 30],ED30,vertebral artery [1],0.6 µg/kg
CC1=NC(C)=C(C(=O)OC(C)C)C(c2ccccc2[N+](=O)[O-])N1C(=O)OCCN(CCCc1ccccc1)CCCc1ccccc1 (stereo not drawn) [Compound 66],T1/2 (the time to reach 50% of the resistance drop),vertebral artery [3],11.9 min
CC1=NC(C)=C(C(=O)OCC2CC2)C(c2ccccc2[N+](=O)[O-])N1C(=O)OCCSc1nc2ccccc2s1 (stereo not drawn) [Compound 64],ED30,vertebral artery [1],0.93 µg/kg
CC1=NC(C)=C(C(=O)OCC(C)C)C(c2ccccc2[N+](=O)[O-])N1C(=O)OCCN(Cc1ccccc1)Cc1ccccc1 (stereo not drawn) [Compound 55],T1/2 (the time to reach 50% of the resistance drop),vertebral artery [3],9.2 min
same,ED30,vertebral artery [1],3.8 µg/kg
CC1=NC(C)=C(C(=O)OCC2CC2)C(c2ccccc2[N+](=O)[O-])N1C(=O)OCCc1cccs1 (stereo not drawn) [Compound 63],ED30,vertebral artery [1],1.3 µg/kg
CC1=NC(C)=C(C(=O)OC(C)C)C(c2ccccc2[N+](=O)[O-])N1C(=O)OCCN(CCc1ccccc1)Cc1ccccc1 (stereo not drawn) [Compound 62],ED30,vertebral artery [1],1.2 µg/kg
COC(=O)C1=C(C)N=C(C)N(C(=O)OCCN(Cc2ccccc2)Cc2ccccc2)C1c1ccccc1[N+](=O)[O-] (stereo not drawn) [Compound 48],ED30,vertebral artery [1],2 µg/kg
CC1=NC(C)=C(C(=O)OC(C)C)C(c2ccccc2[N+](=O)[O-])N1C(=O)OCCN(Cc1ccccc1)Cc1ccccc1 (stereo not drawn) [Compound 49],ED30,vertebral artery [1],2.8 µg/kg
CC1=NC(C)=C(C(=O)OC(C)C)C(c2ccccc2[N+](=O)[O-])N1C(=O)OCCN(Cc1ccccc1)c1ccccc1 (stereo not drawn) [Compound 50],ED30,vertebral artery [1],0.74 µg/kg
CC1=NC(C)=C(C(=O)OC(C)C)C(c2ccccc2[N+](=O)[O-])N1C(=O)OCCN(Cc1ccccn1)c1ccccc1 (stereo not drawn) [Compound 58],ED30,vertebral artery [1],2.5 µg/kg
CC1=NC(C)=C(C(=O)OCC2CC2)C(c2ccccc2[N+](=O)[O-])N1C(=O)OCCN(C/C=C/c1ccccc1)Cc1ccccc1 (stereo not drawn) [Compound 29],T1/2 (the time to reach 50% of the resistance drop),vertebral artery [3],9.5 min
same,ED30,vertebral artery [1],2.5 µg/kg
CC1=NC(C)=C(C(=O)OC(C)C)C(c2ccccc2[N+](=O)[O-])N1C(=O)OCCN(CCCc1ccccc1)Cc1ccccc1 (stereo not drawn) [Compound 39],ED30,vertebral artery [1],2.3 µg/kg
CC1=NC(C)=C(C(=O)OCC2CC2)C(c2ccccc2[N+](=O)[O-])N1C(=O)OCCN1CCOCC1 (stereo not drawn) [Compound 20],ED30,vertebral artery [1],4 µg/kg
CC1=NC(C)=C(C(=O)OCC2CC2)C(c2ccccc2[N+](=O)[O-])N1C(=O)OCCN(C)CCc1ccccc1 (stereo not drawn) [Compound 17],ED30,vertebral artery [1],3.4 µg/kg
CCN(CCOC(=O)N1C(C)=NC(C)=C(C(=O)OCC2CC2)C1c1ccccc1[N+](=O)[O-])c1ccccc1 (stereo not drawn) [Compound 15],ED30,vertebral artery [1],2.5 µg/kg
CCCCOC(=O)C1=C(C)N=C(C)N(C(=O)OCCN(Cc2ccccc2)Cc2ccccc2)C1c1ccccc1[N+](=O)[O-] (stereo not drawn) [Compound 47],T1/2 (the time to reach 50% of the resistance drop),vertebral artery [3],13.0 min
